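Five compound concentrations were applied to cells in 96-well plates for 48 hours; endpoints were derived by simple linear interpolation of the resulting dose-response curve. The concentration for full growth arrest is given as TGI.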
Key:
Test in all cases: DTP human tumour cell line panel, 48 h
SW-620 colon = tested on: SW-620 colon
UACC-62 melanoma = tested on: UACC-62 melanoma
NCI-H226 lung = tested on: NCI-H226 lung
SF-295 CNS = tested on: SF-295 CNS
MDA-MB-435 = tested on: MDA-MB-435
HCT-15 colon = tested on: HCT-15 colon
OVCAR-4 ovarian = tested on: OVCAR-4 ovarian
HS 578T breast = tested on: HS 578T breast
HOP-62 NSCLC = tested on: HOP-62 NSCLC
A498 renal = tested on: A498 renal
NCI-H522 lung = tested on: NCI-H522 lung
CCRF-CEM leukemia = tested on: CCRF-CEM leukemia
OVCAR-3 ovarian = tested on: OVCAR-3 ovarian
MDA-N = tested on: MDA-N
IGROV1 ovarian = tested on: IGROV1 ovarian
UO-31 renal = tested on: UO-31 renal
EKVX NSCLC = tested on: EKVX NSCLC
UACC-257 melanoma = tested on: UACC-257 melanoma
NCI-H23 lung = tested on: NCI-H23 lung
A549 NSCLC = tested on: A549 NSCLC
T-47D breast = tested on: T-47D breast
BT-549 breast = tested on: BT-549 breast
SN12C renal = tested on: SN12C renal
MCF7 breast = tested on: MCF7 breast
HOP-92 NSCLC = tested on: HOP-92 NSCLC
OVCAR-5 ovarian = tested on: OVCAR-5 ovarian
SK-OV-3 ovarian = tested on: SK-OV-3 ovarian
SNB-75 CNS = tested on: SNB-75 CNS
NCI/ADR-RES ovarian = tested on: NCI/ADR-RES ovarian
HL-60(TB) leukemia = tested on: HL-60(TB) leukemia
TK-10 renal = tested on: TK-10 renal
SNB-19 CNS = tested on: SNB-19 CNS
LOX IMVI melanoma = tested on: LOX IMVI melanoma
U251 CNS = tested on: U251 CNS
M14 melanoma = tested on: M14 melanoma
SR leukemia = tested on: SR leukemia
786-0 renal = tested on: 786-0 renal
PC-3 prostate = tested on: PC-3 prostate
SK-MEL-5 melanoma = tested on: SK-MEL-5 melanoma
HT29 colon = tested on: HT29 colon
COLO 205 colon = tested on: COLO 205 colon
NCI-H460 lung = tested on: NCI-H460 lung
MDA-MB-231 breast = tested on: MDA-MB-231 breast
SK-MEL-2 melanoma = tested on: SK-MEL-2 melanoma
RPMI-8226 leukemia = tested on: RPMI-8226 leukemia
ACHN renal = tested on: ACHN renal
SK-MEL-28 melanoma = tested on: SK-MEL-28 melanoma
KM12 colon = tested on: KM12 colon
OVCAR-8 ovarian = tested on: OVCAR-8 ovarian
SF-268 CNS = tested on: SF-268 CNS
MALME-3M melanoma = tested on: MALME-3M melanoma
HCT-116 colon = tested on: HCT-116 colon
DU-145 prostate = tested on: DU-145 prostate
RXF 393 renal = tested on: RXF 393 renal
K-562 leukemia = tested on: K-562 leukemia
CAKI-1 renal = tested on: CAKI-1 renal
MOLT-4 leukemia = tested on: MOLT-4 leukemia
HCC-2998 colon = tested on: HCC-2998 colon
SF-539 CNS = tested on: SF-539 CNS

## O=C(O)C1CCN(Cc2oc(CO)cc(=O)c2O)C1 (stereo unspecified)
SW-620 colon
  TGI: > 100 µM
UACC-62 melanoma
  TGI: > 100 µM
NCI-H226 lung
  TGI: > 100 µM
SF-295 CNS
  TGI: > 100 µM
MDA-MB-435
  TGI: > 100 µM
HCT-15 colon
  TGI: > 100 µM
OVCAR-4 ovarian
  TGI: > 100 µM
HS 578T breast
  TGI: > 100 µM
HOP-62 NSCLC
  TGI: > 100 µM
A498 renal
  TGI: > 100 µM
NCI-H522 lung
  TGI: > 100 µM
CCRF-CEM leukemia
  TGI: > 100 µM
OVCAR-3 ovarian
  TGI: > 100 µM
MDA-N
  TGI: > 100 µM
IGROV1 ovarian
  TGI: > 100 µM
UO-31 renal
  TGI: > 100 µM
EKVX NSCLC
  TGI: > 100 µM
UACC-257 melanoma
  TGI: > 100 µM
NCI-H23 lung
  TGI: > 100 µM
A549 NSCLC
  TGI: > 100 µM
T-47D breast
  TGI: > 100 µM
BT-549 breast
  TGI: > 100 µM
SN12C renal
  TGI: > 100 µM
MCF7 breast
  TGI: > 100 µM
HOP-92 NSCLC
  TGI: > 100 µM
OVCAR-5 ovarian
  TGI: > 100 µM
SK-OV-3 ovarian
  TGI: > 100 µM
SNB-75 CNS
  TGI: > 100 µM
NCI/ADR-RES ovarian
  TGI: > 100 µM
HL-60(TB) leukemia
  TGI: > 100 µM
TK-10 renal
  TGI: > 100 µM
SNB-19 CNS
  TGI: > 100 µM
LOX IMVI melanoma
  TGI: > 100 µM
U251 CNS
  TGI: > 100 µM
M14 melanoma
  TGI: > 100 µM
SR leukemia
  TGI: > 100 µM
786-0 renal
  TGI: > 100 µM
PC-3 prostate
  TGI: > 100 µM
SK-MEL-5 melanoma
  TGI: > 100 µM
HT29 colon
  TGI: > 100 µM
COLO 205 colon
  TGI: > 100 µM
NCI-H460 lung
  TGI: > 100 µM
MDA-MB-231 breast
  TGI: > 100 µM
SK-MEL-2 melanoma
  TGI: > 100 µM
RPMI-8226 leukemia
  TGI: > 100 µM
ACHN renal
  TGI: > 100 µM
SK-MEL-28 melanoma
  TGI: > 100 µM
KM12 colon
  TGI: > 100 µM
OVCAR-8 ovarian
  TGI: > 100 µM
SF-268 CNS
  TGI: > 100 µM
MALME-3M melanoma
  TGI: > 100 µM
HCT-116 colon
  TGI: > 100 µM
DU-145 prostate
  TGI: > 100 µM
RXF 393 renal
  TGI: > 100 µM
K-562 leukemia
  TGI: > 100 µM
CAKI-1 renal
  TGI: > 100 µM
MOLT-4 leukemia
  TGI: > 100 µM

## CSc1c2c(C)n[nH]c2nn1-c1ccccc1
SW-620 colon
  TGI: > 100 µM
UACC-62 melanoma
  TGI: > 100 µM
NCI-H226 lung
  TGI: > 100 µM
HCC-2998 colon
  TGI: > 100 µM
MDA-MB-435
  TGI: > 100 µM
HCT-15 colon
  TGI: > 100 µM
OVCAR-4 ovarian
  TGI: > 100 µM
HS 578T breast
  TGI: > 100 µM
SF-539 CNS
  TGI: > 100 µM
A498 renal
  TGI: > 100 µM
NCI-H522 lung
  TGI: > 100 µM
CCRF-CEM leukemia
  TGI: > 100 µM
OVCAR-3 ovarian
  TGI: > 100 µM
MDA-N
  TGI: > 100 µM
UO-31 renal
  TGI: > 100 µM
EKVX NSCLC
  TGI: > 100 µM
UACC-257 melanoma
  TGI: > 100 µM
NCI-H23 lung
  TGI: > 100 µM
A549 NSCLC
  TGI: > 100 µM
T-47D breast
  TGI: > 100 µM
BT-549 breast
  TGI: > 100 µM
SN12C renal
  TGI: > 100 µM
MCF7 breast
  TGI: > 100 µM
OVCAR-5 ovarian
  TGI: > 100 µM
SK-OV-3 ovarian
  TGI: > 100 µM
SNB-75 CNS
  TGI: > 100 µM
NCI/ADR-RES ovarian
  TGI: > 100 µM
HL-60(TB) leukemia
  TGI: 93.6 µM
TK-10 renal
  TGI: > 100 µM
SNB-19 CNS
  TGI: > 100 µM
LOX IMVI melanoma
  TGI: > 100 µM
U251 CNS
  TGI: > 100 µM
M14 melanoma
  TGI: > 100 µM
SR leukemia
  TGI: > 100 µM
786-0 renal
  TGI: > 100 µM
PC-3 prostate
  TGI: > 100 µM
SK-MEL-5 melanoma
  TGI: > 100 µM
HT29 colon
  TGI: > 100 µM
COLO 205 colon
  TGI: > 100 µM
NCI-H460 lung
  TGI: > 100 µM
MDA-MB-231 breast
  TGI: > 100 µM
SK-MEL-2 melanoma
  TGI: > 100 µM
RPMI-8226 leukemia
  TGI: > 100 µM
SK-MEL-28 melanoma
  TGI: > 100 µM
KM12 colon
  TGI: > 100 µM
OVCAR-8 ovarian
  TGI: > 100 µM
SF-268 CNS
  TGI: > 100 µM
MALME-3M melanoma
  TGI: > 100 µM
HCT-116 colon
  TGI: > 100 µM
DU-145 prostate
  TGI: > 100 µM
RXF 393 renal
  TGI: > 100 µM
K-562 leukemia
  TGI: > 100 µM
CAKI-1 renal
  TGI: 87.4 µM
MOLT-4 leukemia
  TGI: > 100 µM

Reference: PubChem BioAssay (NCI)
